Reference: patent US10856562B2, “Flavor composition and edible compositions containing same” (MARS, INCORPORATED, priority 2013, dated 2020)
Square brackets hold non-standard residues; d marks the D form. Ends that are not written are not given here. pGlu = O=C1CC[C@@H](C(=O)O)N1

Test system: panelists
Assay: Attribute perception scores of flavor enhancers in solution (Example 6)
Assay type: in vivo, human
Design: key to Metallic / Numbing / Atringent / Salt / Sweet / Sour / Bitter / Umami / Sour, mean evaluation score in solution / Numbing, mean evaluation score in solution / Astringent / Umami FF: 15-point intensity scale, 0 = none, 15 = very strong
Conditions: for Mineral/Flinty aromatic in solution as the concentration increases / Salt perception level in solution as the concentration increases / Umami aromatic in solution as the concentration increases / Umami feeling factor in solution as the concentration increases: 1.0 to 100 ppb; for Astringent / Bitter / Flinty/Mineral / Metallic / Numbing / Salt / Sour / Sweet / Umami / Umami FF / Atringent / Mineral/Flinty / Umami/brothy: solution
Procedure: Descriptive attributes (e.g., taste, flavor and chemical feeling factors) of three use levels of pGlu-Cys (FE-35), pGlu-Cys-Gly (FE-36), pGlu-Cys-Cys (FE-37), pGlu-Cys-Val (FE-38) and pGlu-Val-Cys (UE-30) flavor composition peptides were determined. The three use levels were as follows: 1.0 ppb, 10.0 ppb and 100.0 ppb.
Data was collected for the attributes of the product in-mouth for the use levels according to the following protocol: • The samples were analyzed for flavor by six to nine members of a panel, trained and experienced in flavor evaluation using the Spectrum™ method. Samples were evaluated across multiple panel sessions. • The strength of each attribute was rated on a 15-point scale, where 0=none and 15=very strong. • This scale incorporates the ability to use tenths of a point and therefore has the potential of 150 scale differentiations. • The scale may be expanded beyond 15 points to include extreme ratings if necessary.
A summary of the concentrations of NaCl, water and flavor composition peptides in the solution samples is described in table 24.
The panelists evaluated each sample for the attributes described by table 25.

[1] = 10.0 ppb, mean evaluation score
[2] = 100.0 ppb, mean evaluation score
[3] = Concentration 1, MAX, 15-point scale
[4] = Concentration 1, MEAN, 15-point scale
[5] = Concentration 1, MIN, 15-point scale
[6] = Concentration 10, MAX, 15-point scale
[7] = Concentration 10, MEAN, 15-point scale
[8] = Concentration 10, MIN, 15-point scale
[9] = Concentration 100, MAX, 15-point scale
[10] = Concentration 100, MEAN, 15-point scale
[11] = Concentration 100, MIN, 15-point scale

For [pGlu]-Cys [FE-35], the “Mineral/Flinty aromatic in solution as the concentration increases” value was “show no distinct pattern”, the “Salt perception level in solution as the concentration increases” value was “show no distinct pattern” and the “Umami aromatic in solution as the concentration increases” value was “decreases slightly”. The “Umami feeling factor in solution as the concentration increases” value was “shows no distinct pattern”, the Astringent (1.0 ppb, mean evaluation score) was 0.0 and the Bitter (1.0 ppb, mean evaluation score) was 0.1. For the same substance, the Flinty/Mineral (1.0 ppb, mean evaluation score) was 0.9, the Metallic (1.0 ppb, mean evaluation score) was 0.0 and the Numbing (1.0 ppb, mean evaluation score) was 0.0. The Salt (1.0 ppb, mean evaluation score) was 1.8, the Sour (1.0 ppb, mean evaluation score) was 0.0 and the Sweet (1.0 ppb, mean evaluation score) was 0.3. For the same substance, the Umami (1.0 ppb, mean evaluation score) was 1.5, the “Umami FF” value (1.0 ppb, mean evaluation score) was 1.5 and the Astringent [1] was 0.0. It also gave a Bitter [1] of 0.0, a Flinty/Mineral [1] of 0.9 and a Metallic [1] of 0.3. The Numbing [1] was 0.0, the Salt [1] was 2.6 and the Sour [1] was 0.0. The Sweet [1] was 0.3, the Umami [1] was 0.8 and the “Umami FF” value [1] was 1.1. For the same substance, the Astringent [2] was 0.0, the Bitter [2] was 0.0 and the Flinty/Mineral [2] was 0.7. For the same substance, the Metallic [2] was 0.3, the Numbing [2] was 0.0 and the Salt [2] was 2.0. For the same substance, the Sour [2] was 0.0, the Sweet [2] was 0.2 and the Umami [2] was 0.2. The “Umami FF” value [2] was 1.1, the Atringent [3] was 0.0 and the Bitter [3] was 0.5. It also gave a Metallic [3] of 0.0, a Mineral/Flinty [3] of 1.0 and a Numbing [3] of 0.0. For the same substance, the Salt [3] was 2.0, the Sour [3] was 0.0 and the Sweet [3] was 1.0. For the same substance, the Umami [3] was 2.0, the Umami/brothy [3] was 2.0 and the Atringent [4] was 0.0. The Bitter [4] was 0.1, the Metallic [4] was 0.0 and the Mineral/Flinty [4] was 0.9. The Numbing [4] was 0.0, the Salt [4] was 1.8 and the Sour [4] was 0.0. For the same substance, the Sweet [4] was 0.3, the Umami [4] was 1.5 and the Umami/brothy [4] was 1.5. The Atringent [5] was 0.0, the Bitter [5] was 0.0 and the Metallic [5] was 0.0. For the same substance, the Mineral/Flinty [5] was 0.5, the Numbing [5] was 0.0 and the Salt [5] was 1.5. The Sour [5] was 0.0, the Sweet [5] was 0.0 and the Umami [5] was 1.0. It also gave a Umami/brothy [5] of 1.0, an Atringent [6] of 0.0 and a Bitter [6] of 0.0. The Metallic [6] was 2.0, the Mineral/Flinty [6] was 1.2 and the Numbing [6] was 0.0. For the same substance, the Salt [6] was 3.0, the Sour [6] was 0.0 and the Sweet [6] was 1.0. It also gave a Umami [6] of 2.0, a Umami/brothy [6] of 2.0 and an Atringent [7] of 0.0. The Bitter [7] was 0.0, the Metallic [7] was 0.3 and the Mineral/Flinty [7] was 0.9. The Numbing [7] was 0.0, the Salt [7] was 2.6 and the Sour [7] was 0.0. For the same substance, the Sweet [7] was 0.3, the Umami [7] was 1.1 and the Umami/brothy [7] was 0.8. For the same substance, the Atringent [8] was 0.0, the Bitter [8] was 0.0 and the Metallic [8] was 0.0. The Mineral/Flinty [8] was 0.0, the Numbing [8] was 0.0 and the Salt [8] was 2.2. It also gave a Sour [8] of 0.0, a Sweet [8] of 0.0 and a Umami [8] of 0.0. For the same substance, the Umami/brothy [8] was 0.0, the Atringent [9] was 0.0 and the Bitter [9] was 0.0. The Metallic [9] was 1.0, the Mineral/Flinty [9] was 1.5 and the Numbing [9] was 0.0. For the same substance, the Salt [9] was 2.5, the Sour [9] was 0.0 and the Sweet [9] was 1.0. For the same substance, the Umami [9] was 1.5, the Umami/brothy [9] was 1.0 and the Atringent [10] was 0.0. For the same substance, the Bitter [10] was 0.0, the Metallic [10] was 0.3 and the Mineral/Flinty [10] was 0.7. The Numbing [10] was 0.0, the Salt [10] was 2.0 and the Sour [10] was 0.0. The Sweet [10] was 0.2, the Umami [10] was 1.1 and the Umami/brothy [10] was 0.2. It also gave an Atringent [11] of 0.0, a Bitter [11] of 0.0 and a Metallic [11] of 0.0. The Mineral/Flinty [11] was 0.0, the Numbing [11] was 0.0 and the Salt [11] was 1.5. For the same substance, the Sour [11] was 0.0, the Sweet [11] was 0.0 and the Umami [11] was 0.0. For the same substance, the Umami/brothy [11] was 0.0.

In the case of “[pGlu]-Cys-Cys (cysteine pairing not given here) [FE-37]”, the “Mineral/Flinty aromatic in solution as the concentration increases” value was “increase very slightly”, the “Salt perception level in solution as the concentration increases” value was “shows no distinct pattern” and the “Umami aromatic in solution as the concentration increases” value was “increase very slightly”. The “Umami feeling factor in solution as the concentration increases” value was “increases very slightly by 100 ppb”, the “Umami feeling factor in solution as the concentration increases” value (listed as FE 37) was “increase very slightly” and the Astringent (1.0 ppb, mean evaluation score) was 0.0. For the same substance, the Bitter (1.0 ppb, mean evaluation score) was 0.0, the Flinty/Mineral (1.0 ppb, mean evaluation score) was 0.7 and the Metallic (1.0 ppb, mean evaluation score) was 0.0. It also gave a Numbing (1.0 ppb, mean evaluation score) of 0.0, a Salt (1.0 ppb, mean evaluation score) of 2.4 and a Sour (1.0 ppb, mean evaluation score) of 0.0. For the same substance, the Sweet (1.0 ppb, mean evaluation score) was 0.0, the Umami (1.0 ppb, mean evaluation score) was 0.1 and the “Umami FF” value (1.0 ppb, mean evaluation score) was 1.3. The Astringent [1] was 0.0, the Bitter [1] was 0.0 and the Flinty/Mineral [1] was 0.8. It also gave a Metallic [1] of 0.0, a Numbing [1] of 0.0 and a Salt [1] of 3.0. For the same substance, the Sour [1] was 0.0, the Sweet [1] was 0.1 and the Umami [1] was 0.2. The “Umami FF” value [1] was 1.3, the Astringent [2] was 0.0 and the Bitter [2] was 0.0. The Flinty/Mineral [2] was 0.9, the Metallic [2] was 0.1 and the Numbing [2] was 0.0. It also gave a Salt [2] of 2.8, a Sour [2] of 0.0 and a Sweet [2] of 0.2. For the same substance, the Umami [2] was 0.5, the “Umami FF” value [2] was 1.6 and the Atringent [3] was 0.0. For the same substance, the Bitter [3] was 00, the Metallic [3] was 0.0 and the Mineral/Flinty [3] was 1.5. For the same substance, the Numbing [3] was 0.0, the Salt [3] was 2.8 and the Sour [3] was 0.0. The Sweet [3] was 0.0, the Umami [3] was 2.0 and the Umami/brothy [3] was 0.8. For the same substance, the Atringent [4] was 0.0, the Bitter [4] was 0.0 and the Metallic [4] was 0.0. It also gave a Mineral/Flinty [4] of 0.7, a Numbing [4] of 0.0 and a Salt [4] of 2.4. It also gave a Sour [4] of 0.0, a Sweet [4] of 0.0 and a Umami [4] of 1.3. It also gave a Umami/brothy [4] of 0.1, an Atringent [5] of 0.0 and a Bitter [5] of 0.0. For the same substance, the Metallic [5] was 0.0, the Mineral/Flinty [5] was 0.0 and the Numbing [5] was 0.0. The Salt [5] was 2.0, the Sour [5] was 0.0 and the Sweet [5] was 0.0. It also gave a Umami [5] of 0.0, a Umami/brothy [5] of 0.0 and an Atringent [6] of 0.0. The Bitter [6] was 0.0, the Metallic [6] was 0.0 and the Mineral/Flinty [6] was 1.0. The Numbing [6] was 0.0, the Salt [6] was 3.5 and the Sour [6] was 0.0. The Sweet [6] was 0.8, the Umami [6] was 2.5 and the Umami/brothy [6] was 1.0. The Atringent [7] was 0.0, the Bitter [7] was 0.0 and the Metallic [7] was 0.0. It also gave a Mineral/Flinty [7] of 0.8, a Numbing [7] of 0.0 and a Salt [7] of 3.0. For the same substance, the Sour [7] was 0.0, the Sweet [7] was 0.1 and the Umami [7] was 1.3. It also gave a Umami/brothy [7] of 0.2, an Atringent [8] of 0.0 and a Bitter [8] of 0.0. For the same substance, the Metallic [8] was 0.0, the Mineral/Flinty [8] was 0.0 and the Numbing [8] was 0.0. For the same substance, the Salt [8] was 2.5, the Sour [8] was 0.0 and the Sweet [8] was 0.0. It also gave a Umami [8] of 0.0, a Umami/brothy [8] of 0.0 and an Atringent [9] of 0.0. For the same substance, the Bitter [9] was 0.0, the Metallic [9] was 0.8 and the Mineral/Flinty [9] was 1.5. For the same substance, the Numbing [9] was 0.0, the Salt [9] was 4.5 and the Sour [9] was 0.0. For the same substance, the Sweet [9] was 1.0, the Umami [9] was 3.0 and the Umami/brothy [9] was 1.0. The Atringent [10] was 0.0, the Bitter [10] was 0.0 and the Metallic [10] was 0.1. It also gave a Mineral/Flinty [10] of 0.9, a Numbing [10] of 0.0 and a Salt [10] of 2.8. It also gave a Sour [10] of 0.0, a Sweet [10] of 0.2 and a Umami [10] of 1.6. For the same substance, the Umami/brothy [10] was 0.5, the Atringent [11] was 0.0 and the Bitter [11] was 0.0. It also gave a Metallic [11] of 0.0, a Mineral/Flinty [11] of 0.0 and a Numbing [11] of 0.0. For the same substance, the Salt [11] was 1.5, the Sour [11] was 0.0 and the Sweet [11] was 0.0. The Umami [11] was 0.0 and the Umami/brothy [11] was 0.0.
